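48-hour exposure; five concentrations; linearly interpolated endpoints. The concentration for 50% growth inhibition is given as GI50. TGI marks complete inhibition of growth.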
What was measured:
Assay in all cases: inhibition of tumour cell growth, NCI panel, 48 h
NCI-H23 lung = system: NCI-H23 lung
NCI-H460 lung = system: NCI-H460 lung
NCI-H522 lung = system: NCI-H522 lung
NCI/ADR-RES ovarian = system: NCI/ADR-RES ovarian
OVCAR-3 ovarian = system: OVCAR-3 ovarian
OVCAR-4 ovarian = system: OVCAR-4 ovarian
OVCAR-5 ovarian = system: OVCAR-5 ovarian
OVCAR-8 ovarian = system: OVCAR-8 ovarian
PC-3 prostate = system: PC-3 prostate
RPMI-8226 leukemia = system: RPMI-8226 leukemia
RXF 393 renal = system: RXF 393 renal
SF-268 CNS = system: SF-268 CNS
SF-295 CNS = system: SF-295 CNS
SF-539 CNS = system: SF-539 CNS
SK-MEL-2 melanoma = system: SK-MEL-2 melanoma
SK-MEL-28 melanoma = system: SK-MEL-28 melanoma
SK-MEL-5 melanoma = system: SK-MEL-5 melanoma
SK-OV-3 ovarian = system: SK-OV-3 ovarian
SN12C renal = system: SN12C renal
SNB-19 CNS = system: SNB-19 CNS
SNB-75 CNS = system: SNB-75 CNS
SR leukemia = system: SR leukemia
SW-620 colon = system: SW-620 colon
T-47D breast = system: T-47D breast
TK-10 renal = system: TK-10 renal
U251 CNS = system: U251 CNS
UACC-257 melanoma = system: UACC-257 melanoma
UACC-62 melanoma = system: UACC-62 melanoma
UO-31 renal = system: UO-31 renal

## O=C(Nc1ncc(Cc2ccccc2)s1)c1sc2ccccc2c1Cl
NCI-H23 lung
  GI50: 2250 nM
  TGI: > 61600 nM
NCI-H460 lung
  GI50: 253 nM
  TGI: 18400 nM
NCI-H522 lung
  GI50: 739 nM
  TGI: 15800 nM
NCI/ADR-RES ovarian
  GI50: 573 nM
  TGI: 35100 nM
OVCAR-3 ovarian
  GI50: 523 nM
  TGI: 14400 nM
OVCAR-4 ovarian
  GI50: 3320 nM
  TGI: 79400 nM
OVCAR-5 ovarian
  GI50: 2210 nM
  TGI: 64200 nM
OVCAR-8 ovarian
  GI50: 2540 nM
  TGI: > 100000 nM
PC-3 prostate
  GI50: 948 nM
  TGI: > 60400 nM
RPMI-8226 leukemia
  GI50: 1330 nM
  TGI: > 100000 nM
RXF 393 renal
  GI50: 665 nM
  TGI: 10600 nM
SF-268 CNS
  GI50: 1370 nM
  TGI: > 100000 nM
SF-295 CNS
  GI50: 753 nM
  TGI: 19600 nM
SF-539 CNS
  GI50: 497 nM
  TGI: 5230 nM
SK-MEL-2 melanoma
  GI50: 534 nM
  TGI: > 64400 nM
SK-MEL-28 melanoma
  GI50: 2180 nM
  TGI: > 80400 nM
SK-MEL-5 melanoma
  GI50: 63.4 nM
  TGI: 691 nM
SK-OV-3 ovarian
  GI50: 2770 nM
  TGI: 93700 nM
SN12C renal
  GI50: 1240 nM
  TGI: > 100000 nM
SNB-19 CNS
  GI50: 777 nM
  TGI: 59900 nM
SNB-75 CNS
  GI50: 368 nM
  TGI: 12900 nM
SR leukemia
  GI50: 522 nM
  TGI: > 100000 nM
SW-620 colon
  GI50: 476 nM
  TGI: > 100000 nM
T-47D breast
  GI50: 71.3 nM
  TGI: > 100000 nM
TK-10 renal
  GI50: 4010 nM
  TGI: 69100 nM
U251 CNS
  GI50: 593 nM
  TGI: 26000 nM
UACC-257 melanoma
  GI50: 1930 nM
  TGI: > 66500 nM
UACC-62 melanoma
  GI50: 147 nM
  TGI: 17800 nM
UO-31 renal
  GI50: 1410 nM
  TGI: > 82300 nM

Reference: PubChem BioAssay (NCI)
